# Reference: patent publication US5776892A, “Anti-inflammatory peptides” (Curative Health Services, Inc., priority 1994, dated 1998)
# No end group written: not given here.
# Tested on: arachidonic acid induced inflammation in mouse ear
# Assay: Mouse ear model, arachidonic acid (AA) induced inflammation, ear thickness
# Assay type: in vivo
# Method: The anti-inflammatory properties of CT-112 (SEQ. ID NO: 1) were assessed using a standardized assay for anti-inflammatory activity, i.e., the mouse ear model in which arachidonic acid (AA) is used to induce an inflammatory reaction (Young et al., 1984, J. Invest. Dermatol. 82:367-371; Doherty, et al., 1988, J. Invest. Dermatol. 91:298-302).
# Female mice (C57BL/6UAF, Charles River Breeding Laboratories, approximately 15-18 g) were obtained and acclimated for 2 weeks prior to use. The animals were approximately 14 weeks old at the start of the study.
# To prepare minipumps for implantation, CT-112 (SEQ. ID NO: 1) was dissolved in PBS. The material was loaded into Alzet minipumps set to deliver 0.05 (5 animals), 0.1 (10 animals), 1 (10 animals), or 2.5 (5 animals) mg of CT-112 (SEQ. ID NO: 1) per animal per day. Minipumps for implantation into control animals contained only PBS. As a positive control, one set of 10 mice received 100 mg/kg of phenidone, a potent 5-lipoxygenase inhibitor which acts as an anti-inflammatory agent, 15 min prior to challenge with AA.
# For subcutaneous implantation of minipumps, animals were anesthetized with Ketamine/Xylazine. The Ketamine (Aveco Lot #440140) was injected at 80 mg/kg and the Xylazine (Rugby Laboratories Lot #26040-B) at 16 mg/kg and the Alzet pumps were implanted subcutaneously in the dorsothoracic area. Animals were allowed to recover and then housed and given food and water ad libitum for 5 days.
# On the sixth day following pump implantation, 0.01 ml of AA was applied to the inner and outer surfaces of the right ear by means of an automatic microliter pipette. One hr following AA application, the mice were sacrificed and ear thickness was measured with a Mitutoyo No. 7300 Gauge Caliper. The left ears were also measured as an internal control.
# Mice were implanted with Alzet mini-pumps set to deliver 60 mg/kg/day for either 7, 3, or 1 days. A separate group of 5 mice received 3 intraperitoneal injections of CT-112 (60 mg/kg/injection) at 24, 1 and 0.25 hr prior to AA challenge. CT-112 (SEQ. ID NO: 1) was prepared for injection by dissolving the compound in Dulbecco's PBS to give a final CT-112 (SEQ. ID NO: 1) concentration of 5 mg/ml. The control mice were implanted with Alzet minipumps that delivered PBS for 7 days. The AA challenge was the same as described supra in Example 7.
# Administration of CT-112 (SEQ. ID NO: 1) (60 mg/kg/injection) via multiple intraperitoneal injections was performed at the following times prior to AA challenge:
# In addition, the effect of a single administration of CT-112 (SEQ. ID NO: 1) (60 mg/kg) by intraperitoneal injection was performed at either 1 or 3 hr prior to AA challenge. Control mice had Alzet minipumps implanted to deliver PBS for 7 days prior to AA challenge. The AA challenge was the same as described supra in Example 7. The results of the multiple dosing regimens and the 1 hr and 3 hr single dosing regimens were compared to the anti-inflammatory activity of CT-112 (SEQ. ID NO: 1) delivered via Alzet minipump set to deliver 60 mg/kg/day for 7 days using 5 animals per treatment.
# In a separate experiment, the effect of multiple intraperitoneal injections of CT-112 (SEQ. ID NO: 1) at either 6, 3, 1 and 0.25 hr, or 16, 3, 1 and 0.25 hr prior to AA challenge was assessed. The results of both multi-dosing regimens were compared to both phenidone (100 mg/kg administered 15 min prior to AA challenge) and CT-112 (SEQ. ID NO: 1) administered via Alzet mini-pump (60 mg/kg/day for 7 days). For this latter study, the number of animals receiving the single injection of CT-112 (SEQ. ID NO: 1) was increased from 5 to 10.
# Administration to mice of CT-112 (SEQ. ID NO: 1) (60 mg/kg/injection) via multiple subcutaneous injections prior to AA challenge was performed at:
# In addition, other mice received only a single subcutaneous injection of CT-112 (SEQ. ID NO: 1) (60 mg/kg) at either 3 or 1 hr prior to AA challenge. […]
compound,measurement,setting,value
"O=C1CCN(c2ccccc2)N1 [Phenidone, reference compound]",% Reduction of Ear Swelling,"Table I, phenidone 100 mg/kg, 15 min prior to AA",84.1%
"TTSHVKPQ [CT-135, ID; NO; 20]",% Inhibition,"Table XII, 60 mg/kg/day via Alzet pump for 24 hr",73%
same,Thickness Difference (Left-Right),"Table XIII, 60 mg/kg/day via Alzet pump for 24 hr",0.00178 ± 0.00073 in
